Results published in ChEMBL document CHEMBL5046226, “Identification of (6S)-cyclopropyl-6,7-dihydropyrazolo[1,5-a]pyrazine-5(4H)-carboxamines as new HBV capsid assembly modulators” (Eur J Med Chem, 2022).

Key:
[1] = Cytotoxicity against human HepG2.2.15 cells assessed as reduction in cell viability by CellTiter-Glo reagent based assay; type: toxicity, HepG2 2.2.15
[2] = tested on: Hepatitis B virus; experiment: Antiviral activity against Hepatitis B virus infected in human HepG2.2.15 cells; type: functional, organism-based
[3] = Tmax in ICR mouse at 50 mg/kg, po; type: ADME, organism-based; settings: in vivo
[4] = AUC (0 to infinity) in ICR mouse at 50 mg/kg, po; type: ADME, organism-based; design: route oral, time infinity, dose 50 mg/kg; settings: in vivo
[5] = Cmax in ICR mouse at 50 mg/kg, po; type: ADME, organism-based; design: route oral, dose 50 mg/kg; settings: in vivo
[6] = Half life in ICR mouse at 50 mg/kg, po; type: ADME, organism-based; settings: in vivo

SMILES | CC50 [1] [µM] | EC50 [2] [µM] | Tmax [3] [min] | AUC(0-inf) [4] [ng·h/mL] | Cmax [5] [ng/mL] | half-life [6] [min]
C[C@H]1Cn2ncc(N3CC(c4ccccc4)CC3=O)c2CN1C(=O)NCc1cc(F)c(F)c(F)c1 (some centres undefined) | > 2 | > 2 |  |  |  | 
O=C1CC(c2ccc(F)cc2)CN1c1cnn2c1CN(C(=O)Nc1cc(F)c(F)c(F)c1)C(C1CC1)C2 (centres undefined) | 32 | 0.023 |  |  |  | 
C[C@H]1Cn2ncc(N3CC(c4ccccc4)CC3=O)c2CN1S(=O)(=O)Nc1cc(F)c(F)c(F)c1 (some centres undefined) | > 2 | > 2 |  |  |  | 
O=C1CC(c2ncco2)CN1c1cnn2c1CN(C(=O)Nc1cc(F)c(F)c(F)c1)C(C1CC1)C2 (centres undefined) | > 200 | 0.009 | 15 | 12200 | 8740 | 222
O=C1CC(c2ccc(F)cn2)CN1c1cnn2c1CN(C(=O)Nc1cc(F)c(F)c(F)c1)C(C1CC1)C2 (centres undefined) | 38.5 | 0.015 |  |  |  | 
O=C1CC(c2ncc(F)cn2)CN1c1cnn2c1CN(C(=O)Nc1cc(F)c(F)c(F)c1)C(C1CC1)C2 (centres undefined) | 115 | 0.02 |  |  |  | 
N#CC1CC(=O)N(c2cnn3c2CN(C(=O)Nc2cc(F)c(F)c(F)c2)C2(CC2)C3)C1 (centres undefined) | > 200 | 0.124 |  |  |  | 
O=C1OC(c2ccccc2)CN1c1cnn2c1CN(C(=O)Nc1cc(F)c(F)c(F)c1)C(C1CC1)C2 (centres undefined) | 7.41 | 0.018 |  |  |  | 
Cc1nc(C2CC(=O)N(c3cnn4c3CN(C(=O)Nc3cc(F)c(F)c(F)c3)C(C3CC3)C4)C2)no1 (centres undefined) | > 200 | 0.016 | 19.8 | 3860 | 3860 | 202
C[C@H]1Cn2ncc(N3CC(c4ccccc4)CC3=O)c2CN1C(=S)Nc1cc(F)c(F)c(F)c1 (some centres undefined) | > 2 | > 2 |  |  |  | 
O=C1CC(c2ncccn2)CN1c1cnn2c1CN(C(=O)Nc1cc(F)c(F)c(F)c1)C(C1CC1)C2 (centres undefined) | > 200 | 0.015 | 15 | 5070 | 5980 | 52.2
O=C1CC(c2nccs2)CN1c1cnn2c1CN(C(=O)Nc1cc(F)c(F)c(F)c1)C(C1CC1)C2 (centres undefined) | 115 | 0.011 |  |  |  | 
C[C@H]1Cn2ncc(N3CC(c4ccccc4)CC3=O)c2CN1C(=O)Nc1cc(F)c(F)c(F)c1 (some centres undefined) | 12.8 | 0.009 | 15 | 6510 | 3130 | 136
CC1(C)CN(C(=O)Nc2cc(F)c(F)c(F)c2)Cc2c(N3CC(C#N)CC3=O)cnn21 (centres undefined) | > 200 | 0.038 |  |  |  | 
O=C1c2ccccc2CN1c1cnn2c1CN(C(=O)Nc1cc(F)c(F)c(F)c1)C(C1CC1)C2 (centres undefined) | 38.5 | 0.083 |  |  |  | 
O=C(Nc1cc(F)c(F)c(F)c1)N1CCCn2ncc(N3CC(c4ccccc4)CC3=O)c2C1 (centres undefined) | > 2 | > 2 |  |  |  | 
O=C1CC(c2ccccc2)CN1c1cnn2c1CN(C(=O)Nc1cc(F)c(F)c(F)c1)C1CCCCC12 (centres undefined) | 21.4 | 0.027 |  |  |  | 
O=C1CC(c2ccccn2)CN1c1cnn2c1CN(C(=O)Nc1cc(F)c(F)c(F)c1)C(C1CC1)C2 (centres undefined) | 96.2 | 0.012 |  |  |  | 

SMILES | CC50 [1] [µM] | EC50 [2] [µM] | Tmax [3] [min] | AUC(0-inf) [4] [ng·h/mL] | Cmax [5] [ng/mL] | half-life [6] [min]
CC1CCn2ncc(N3CC(c4ccccc4)CC3=O)c2CN1C(=O)Nc1cc(F)c(F)c(F)c1 (centres undefined) | > 2 | > 2 |  |  |  | 
O=C1NC(c2ccccc2)CN1c1cnn2c1CN(C(=O)Nc1cc(F)c(F)c(F)c1)C(C1CC1)C2 (centres undefined) | 38.5 | 0.003 |  |  |  | 
O=C1CC(c2cnc(C(F)(F)F)s2)CN1c1cnn2c1CN(C(=O)Nc1cc(F)c(F)c(F)c1)C(C1CC1)C2 (centres undefined) | 38.5 | 0.027 |  |  |  | 
O=C(Nc1cc(F)c(F)c(F)c1)N1Cc2c(-c3ccc(F)cc3F)cnn2CC1C1CC1 (centres undefined) | 32 | 0.023 |  |  |  | 
O=C1CC(Oc2ncc(F)cn2)CN1c1cnn2c1CN(C(=O)Nc1cc(F)c(F)c(F)c1)C(C1CC1)C2 (centres undefined) | 96.2 | 0.009 |  |  |  | 
CC1CN(C(=O)Nc2cc(F)c(F)c(F)c2)Cc2c(N3CC(C#N)CC3=O)cnn21 (centres undefined) | 115 | 0.062 |  |  |  | 
O=C1CC(c2cnco2)CN1c1cnn2c1CN(C(=O)Nc1cc(F)c(F)c(F)c1)C(C1CC1)C2 (centres undefined) | 139 | 0.016 |  |  |  | 
O=C1OC(c2ccc(F)cc2)CN1c1cnn2c1CN(C(=O)Nc1cc(F)c(F)c(F)c1)C(C1CC1)C2 (centres undefined) | 3.56 | 0.011 |  |  |  | 
N#CC1CC(=O)N(c2cnn3c2CN(C(=O)Nc2cc(F)c(F)c(F)c2)C(C2CC2)C3)C1 (centres undefined) | > 200 | 0.012 | 15 | 10600 | 6400 | 278
O=C1CC(C(F)(F)F)CN1c1cnn2c1CN(C(=O)Nc1cc(F)c(F)c(F)c1)C(C1CC1)C2 (centres undefined) | 115 | 0.034 |  |  |  | 
O=C1CC(c2ccccc2)CN1c1cnn2c1CN(C(=O)Nc1cc(F)c(F)c(F)c1)C(C1CC1)C2 (centres undefined) | 12.8 | 0.006 |  |  |  | 
CC1(C)CC(=O)N(c2cnn3c2CN(C(=O)Nc2cc(F)c(F)c(F)c2)C(C2CC2)C3)C1 (centres undefined) | 115 | 0.02 |  |  |  | 
O=C1CC(Oc2ncccn2)CN1c1cnn2c1CN(C(=O)Nc1cc(F)c(F)c(F)c1)C(C1CC1)C2 (centres undefined) | > 200 | 0.016 | 15 | 4020 | 5270 | 57
O=C1CC(c2ccccc2)CN1c1cnn2c1CN(C(=O)Nc1cc(F)c(F)c(F)c1)C(Cc1ccccc1)C2 (centres undefined) | > 2 | > 2 |  |  |  | 
Cc1cnc(C2CC(=O)N(c3cnn4c3CN(C(=O)Nc3cc(F)c(F)c(F)c3)C(C3CC3)C4)C2)s1 (centres undefined) | 96.2 | 0.018 |  |  |  | 
C[C@H]1Cn2ncc(N3CC(c4ccccc4)CC3=O)c2CN1CC(=O)Nc1cc(F)c(F)c(F)c1 (some centres undefined) | > 2 | > 2 |  |  |  | 
O=C(Nc1cc(F)c(F)c(F)c1)N1Cc2c(-c3ccc(F)cc3)cnn2CC1C1CC1 (centres undefined) | 38.5 | 0.004 |  |  |  | 
